Test system: skin
Assay: Affymetrix microarray of skin, DBP-4 hr and analogs vs. untreated; gene selection by log-2 fold change, Wilcoxon, Kendall tau (Tables 8, 9)
Assay type: in vivo, mouse
Details: for Kendall: Kendall tau coefficient
[1] = DBP-4 hr vs. untreated, rank-sum p-value
[2] = Kendall tau, expression vs. output

CCCCOC(=O)c1ccccc1C(=O)OCCCC [DBP, dibutylphthalate]
Gm10229 XM_003086003_at Wilcoxon [1]: Yes | Gsdmc NM_031378_at Wilcoxon [1]: Yes | H19 NR_001592_at Wilcoxon [1]: Yes | Il1rl1 NM_001025602_at Wilcoxon [1]: No | Inpp5a NM_001127363_at Wilcoxon [1]: No | Inpp5d NM_001110192_at Wilcoxon [1]: No | Inpp5d NM_001110193_at Wilcoxon [1]: No | Klhdc5 NM_001081237_at Wilcoxon [1]: No | Krt33a NM_027983_at Wilcoxon [1]: Yes | Krt34 NM_027563_at Wilcoxon [1]: Yes | Krtap1-5 NM_027157_at Wilcoxon [1]: Yes | Krtap3-1 NM_023511_at Wilcoxon [1]: Yes | Krtap3-3 NM_025524_at Wilcoxon [1]: Yes | Krtap4-2 NM_026807_at Wilcoxon [1]: Yes | Krtap5-2 NM_027844_at Wilcoxon [1]: Yes | Krtap9-3 NM_029351_at Wilcoxon [1]: Yes | Krtap13-1 NM_183189_at Wilcoxon [1]: Yes | Krtap16-1 NM_130870_at Wilcoxon [1]: Yes | Krtap16-5 NM_130857_at Wilcoxon [1]: Yes | Krtap16-7 NM_028621_at Wilcoxon [1]: Yes | Krtap16-8 NM_130856_at Wilcoxon [1]: Yes | Krtap16-9 NM_130876_at Wilcoxon [1]: Yes | Krtap16-10 NM_183296_at Wilcoxon [1]: Yes | Krtap28-13 XM_896507_at Wilcoxon [1]: Yes | Krtap28-13 XM_919110_at Wilcoxon [1]: Yes | LOC100503254 XM_003085741_at Wilcoxon [1]: Yes | Lmod2 NM_053098_at Wilcoxon [1]: Yes | Lyz2 NM_017372_at Wilcoxon [1]: Yes | Mfhas1 NM_001081279_at Wilcoxon [1]: No | Mfsd4 NM_001114662_at Wilcoxon [1]: No | Mia1 NM_019394_at Wilcoxon [1]: Yes | Mrpl44 NM_001081210_at Wilcoxon [1]: No | Ms4a6d NM_026835_at Wilcoxon [1]: Yes | Mylpf NM_016754_at Wilcoxon [1]: Yes | Myoz2 NM_021503_at Wilcoxon [1]: Yes | Ncbp1 NM_001033201_at Wilcoxon [1]: No | Nolc1 NM_001039351_at Wilcoxon [1]: No | Nolc1 NM_001039352_at Wilcoxon [1]: No | Nolc1 NM_001039353_at Wilcoxon [1]: No | Nrap NM_198059_at Wilcoxon [1]: Yes | Nusap1 NM_133851_at Wilcoxon [1]: Yes | Ogfrl1 NM_001081079_at Wilcoxon [1]: No | Olr1 NM_138648_at Wilcoxon [1]: Yes | Oxr1 NM_001130163_at Wilcoxon [1]: No | Oxr1 NM_001130164_at Wilcoxon [1]: No | Oxr1 NM_001130165_at Wilcoxon [1]: No | Oxr1 NM_001130166_at Wilcoxon [1]: No | Pgam2 NM_018870_at Wilcoxon [1]: Yes | Pigyl NM_001082532_at Wilcoxon [1]: No | Pparg NM_001127330_at Wilcoxon [1]: No | Ppih NM_001110129_at Wilcoxon [1]: No | Prg4 NM_021400_at Wilcoxon [1]: Yes | Retnla NM_020509_at Wilcoxon [1]: Yes | Rffl NM_001007465_at Wilcoxon [1]: No | Rn18s NR_003278_at Wilcoxon [1]: Yes | Rpl3l NM_025425_at Wilcoxon [1]: Yes | Slc39a14 NM_001135151_at Wilcoxon [1]: No | Sln NM_025540_at Wilcoxon [1]: Yes | Smpx NM_025357_at Wilcoxon [1]: Yes | Tnfrsf9 NM_001077508_at Wilcoxon [1]: No | Tnfrsf9 NM_001077509_at Wilcoxon [1]: No | Tnni1 NM_021467_at Wilcoxon [1]: Yes | Trdn NM_029726_at Wilcoxon [1]: Yes | Trf NM_133977_at Wilcoxon [1]: Yes | Trp63 NM_001127259_at Wilcoxon [1]: No | Trp63 NM_001127260_at Wilcoxon [1]: No | Trp63 NM_001127262_at Wilcoxon [1]: No | Trp63 NM_001127264_at Wilcoxon [1]: No | Ttn NM_028004_at Wilcoxon [1]: Yes | Wbp1 NM_001083922_at Wilcoxon [1]: No | Wbp1 NM_001083923_at Wilcoxon [1]: No | Wfdc2 NM_026323_at Wilcoxon [1]: Yes | Zfp68 NM_001044747_at Wilcoxon [1]: No | Zfp187 NM_001013786_at Wilcoxon [1]: No | Zfp518b NM_001081144_at Wilcoxon [1]: No | Zfp943 NM_001025373_at Wilcoxon [1]: No | Wilcoxon (Egr1 NM_007913_at, DBP-4 hr vs. untreated): Yes | Kendall (Egr1 NM_007913_at): No | Wilcoxon (Ehf NM_007914_at, DBP-4 hr vs. untreated): Yes | Kendall (Ehf NM_007914_at): No | Wilcoxon (Ereg NM_007950_at, DBP-4 hr vs. untreated): Yes | Kendall (Ereg NM_007950_at): No | Wilcoxon (Fgfbp1 NM_008009_at, DBP-4 hr vs. untreated): No | Kendall (Fgfbp1 NM_008009_at): No | Wilcoxon (Gch1 NM_008102_at, DBP-4 hr vs. untreated): Yes | Kendall (Gch1 NM_008102_at): No | Wilcoxon (Gjb2 NM_008125_at, DBP-4 hr vs. untreated): Yes | Kendall (Gjb2 NM_008125_at): No | Wilcoxon (Gpr65 NM_008152_at, DBP-4 hr vs. untreated): Yes | Kendall (Gpr65 NM_008152_at): No | 1110032A04Rik NM_133675_at Kendall [2]: No | 2510002D24Rik NM_001033164_at Kendall [2]: Yes | 2510009E07Rik NM_001001881_at Kendall [2]: Yes | 2610528A11Rik XR_105647_at Kendall [2]: No | 1500015010Rik NM_024283_at Kendall [2]: No | 3110079015Rik NM_028473_at Kendall [2]: No | A2m NM_175628_at Kendall [2]: No | AY026312 NM_133359_at Kendall [2]: No | Actn2 NM_033268_at Kendall [2]: No | Akr1c14 NM_134072_at Kendall [2]: No | Aldh7a1 NM_001127338_at Kendall [2]: Yes | Aox4 NM_023631_at Kendall [2]: No | Asb5 NM_029569_at Kendall [2]: No | Atp2a2 NM_001110140_at Kendall [2]: Yes | Atp13a3 NM_001128094_at Kendall [2]: Yes | Atp13a3 NM_001128096_at Kendall [2]: Yes | Bcr NM_001081412_at Kendall [2]: Yes | Camk2g NM_001039138_at Kendall [2]: Yes | Camk2g NM_001039139_at Kendall [2]: Yes | Ccl8 NM_021443_at Kendall [2]: No | Ccl24 NM_019577_at Kendall [2]: No | Cd209d NM_130904_at Kendall [2]: No | Ckmt2 NM_198415_at Kendall [2]: No | Cldn8 NM_018778_at Kendall [2]: No | Clec4n NM_020001_at Kendall [2]: No | Cmya5 NM_023821_at Kendall [2]: No | Comp NM_016685_at Kendall [2]: No | Corin NM_016869_at Kendall [2]: No | Crispld1 NM_031402_at Kendall [2]: No | Cxcl10 NM_021274_at Kendall [2]: No | Cxcr6 NM_030712_at Kendall [2]: No | Cyth1 NM_001112699_at Kendall [2]: Yes | Cyth1 NM_001112700_at Kendall [2]: Yes | Dbp NM_016974_at Kendall [2]: No | Deptor NM_001037937_at Kendall [2]: Yes | Dlgap4 NM_001042487_at Kendall [2]: Yes | Dlgap4 NM_001042488_at Kendall [2]: Yes | Ear5 NM_019398_at Kendall [2]: No | Fam134b NM_001034851_at Kendall [2]: Yes | Gcdh NM_001044744_at Kendall [2]: Yes | Gm10228 XM_001474297_at Kendall [2]: No | Gm10228 XM_003086004_at Kendall [2]: No | Gm10229 XM_003086003_at Kendall [2]: No | Gsdmc NM_031378_at Kendall [2]: No | H19 NR_001592_at Kendall [2]: No | Il1rl1 NM_001025602_at Kendall [2]: Yes | Inpp5a NM_001127363_at Kendall [2]: Yes | Inpp5d NM_001110192_at Kendall [2]: Yes | Inpp5d NM_001110193_at Kendall [2]: Yes | Klhdc5 NM_001081237_at Kendall [2]: Yes | Krt33a NM_027983_at Kendall [2]: No | Krt34 NM_027563_at Kendall [2]: No | Krtap1-5 NM_027157_at Kendall [2]: No | Krtap3-1 NM_023511_at Kendall [2]: No | Krtap3-3 NM_025524_at Kendall [2]: No | Krtap4-2 NM_026807_at Kendall [2]: No | Krtap5-2 NM_027844_at Kendall [2]: No | Krtap9-3 NM_029351_at Kendall [2]: No | Krtap13-1 NM_183189_at Kendall [2]: No | Krtap16-1 NM_130870_at Kendall [2]: No | Krtap16-5 NM_130857_at Kendall [2]: No | Krtap16-7 NM_028621_at Kendall [2]: No | Krtap16-8 NM_130856_at Kendall [2]: No | Krtap16-9 NM_130876_at Kendall [2]: No | Krtap16-10 NM_183296_at Kendall [2]: No | Krtap28-13 XM_896507_at Kendall [2]: No | Krtap28-13 XM_919110_at Kendall [2]: No | LOC100503254 XM_003085741_at Kendall [2]: No | Lmod2 NM_053098_at Kendall [2]: No | Lyz2 NM_017372_at Kendall [2]: No | Mfhas1 NM_001081279_at Kendall [2]: Yes | Mfsd4 NM_001114662_at Kendall [2]: Yes | Mia1 NM_019394_at Kendall [2]: No | Mrpl44 NM_001081210_at Kendall [2]: Yes | Ms4a6d NM_026835_at Kendall [2]: No | Mylpf NM_016754_at Kendall [2]: No | Myoz2 NM_021503_at Kendall [2]: No | Ncbp1 NM_001033201_at Kendall [2]: Yes | Nolc1 NM_001039351_at Kendall [2]: Yes | Nolc1 NM_001039352_at Kendall [2]: Yes | Nolc1 NM_001039353_at Kendall [2]: Yes | Nrap NM_198059_at Kendall [2]: No | Nusap1 NM_133851_at Kendall [2]: No | Ogfrl1 NM_001081079_at Kendall [2]: Yes | Olr1 NM_138648_at Kendall [2]: No | Oxr1 NM_001130163_at Kendall [2]: Yes | Oxr1 NM_001130164_at Kendall [2]: Yes | Oxr1 NM_001130165_at Kendall [2]: Yes
